Measured values taken from BindingDB's records for doi:10.1016/j.bioorg.2017.01.017 (University of The Punjab, 2017).

Each compound was assayed against Alpha-glucosidase MAL12 (Saccharomyces cerevisiae (strain ATCC 204508 / S288c), UniProt P53341) (assay: α-Glucosidase Inhibition Assay).
Sequence of Alpha-glucosidase MAL12 (P53341 whole entry): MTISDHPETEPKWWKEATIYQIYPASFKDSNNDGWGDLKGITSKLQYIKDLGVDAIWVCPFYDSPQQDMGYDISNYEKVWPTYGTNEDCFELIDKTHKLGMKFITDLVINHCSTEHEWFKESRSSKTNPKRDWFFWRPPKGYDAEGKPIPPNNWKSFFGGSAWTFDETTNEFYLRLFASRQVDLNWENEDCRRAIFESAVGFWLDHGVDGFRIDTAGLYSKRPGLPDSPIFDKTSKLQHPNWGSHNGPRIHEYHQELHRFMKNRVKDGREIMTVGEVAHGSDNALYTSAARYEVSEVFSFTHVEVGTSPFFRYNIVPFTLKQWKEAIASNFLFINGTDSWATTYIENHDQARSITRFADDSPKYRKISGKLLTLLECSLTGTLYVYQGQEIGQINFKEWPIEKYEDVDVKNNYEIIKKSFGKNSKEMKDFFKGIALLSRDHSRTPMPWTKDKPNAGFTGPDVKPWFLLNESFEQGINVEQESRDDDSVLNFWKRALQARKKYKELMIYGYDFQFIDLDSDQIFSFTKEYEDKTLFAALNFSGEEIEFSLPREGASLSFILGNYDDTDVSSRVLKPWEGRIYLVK
Method: Afterwards, 10 μL of 0.5 mM p-nitrophenyl-a-d-glucopyranoside (code No. N1377 fromSigma Inc) was added to instigate the reaction. Later 30 min incubation at 37 °C, yellow coloured p-nitrophenol was formed and the absorbance was again recorded at 400 nm to see the difference. These tests were performed in triplicates and suitable dilutions of samples were made for screening.

SMILES | IC50 [µM]
O=c1oc2ccccc2cc1-c1nn(-c2ccccc2)cc1-c1nc(-c2ccccc2)c(-c2ccccc2)[nH]1 [3-(4-(4,5-diphenyl-1H-imidazol-2-yl)-1-phenyl-1H-pyrazol-3-yl)-2H-chromen-2-one (2j)] | 2.78
Brc1ccc(-c2nn(-c3ccccc3)cc2-c2nc(-c3ccccc3)c(-c3ccccc3)[nH]2)cc1 [3-(4-Bromophenyl)-4-(4,5-diphenyl-1H-imidazol-2-yl)-1-phenyl-1H-pyrazole (2c)] | 12
Clc1ccc(-c2nn(-c3ccccc3)cc2-c2nc(-c3ccccc3)c(-c3ccccc3)[nH]2)cc1 [3-(4-Chlorophenyl)-4-(4,5-diphenyl-1H-imidazol-2-yl)-1-phenyl-1H-pyrazole (2b)] | 13.2
c1ccc(-c2ccc(-c3nn(-c4ccccc4)cc3-c3nc(-c4ccccc4)c(-c4ccccc4)[nH]3)cc2)cc1 [3-([1,1'-Biphenyl]-4-yl)-4-(4,5-diphenyl-1H-imidazol-2-yl)-1-phenyl-1H-pyrazole (2g)] | 17.5
c1ccc(-c2nn(-c3ccccc3)cc2-c2nc(-c3ccccc3)c(-c3ccccc3)[nH]2)cc1 [4-(4,5-Diphenyl-1H-imidazol-2-yl)-1,3-diphenyl-1H-pyrazole (2a)] | 22.2
O=[N+]([O-])c1ccc(-n2cc(-c3nc(-c4ccccc4)c(-c4ccccc4)[nH]3)c(-c3ccccc3)n2)cc1 [4-(4,5-Diphenyl-1H-imidazol-2-yl)-1-(4-nitrophenyl)-3-phenyl-1H-pyrazole (2h)] | 7.81
Cc1nn(-c2ccc([N+](=O)[O-])cc2)c(C)c1-c1nc(-c2ccccc2)c(-c2ccccc2)[nH]1 [4-(4,5-Diphenyl-1H-imidazol-2-yl)-3,5-dimethyl-1-(4-nitrophenyl)-1H-pyrazole (2i)] | 22
O=[N+]([O-])c1cccc(-c2nn(-c3ccccc3)cc2-c2nc(-c3ccccc3)c(-c3ccccc3)[nH]2)c1 [4-(4,5-Diphenyl-1H-imidazol-2-yl)-3-(3-nitrophenyl)-1-phenyl-1H-pyrazole (2f)] | 12.8
COc1ccc(-c2nn(-c3ccccc3)cc2-c2nc(-c3ccccc3)c(-c3ccccc3)[nH]2)cc1 [4-(4,5-Diphenyl-1H-imidazol-2-yl)-3-(4-methoxyphenyl)-1-phenyl-1H-pyrazole (2e)] | 24
O=[N+]([O-])c1ccc(-c2nn(-c3ccccc3)cc2-c2nc(-c3ccccc3)c(-c3ccccc3)[nH]2)cc1 [4-(4,5-Diphenyl-1H-imidazol-2-yl)-3-(4-nitrophenyl)-1-phenyl-1H-pyrazole (2d)] | 20.7
O=c1oc2ccc(Br)cc2cc1-c1nn(-c2ccccc2)cc1-c1nc(-c2ccccc2)c(-c2ccccc2)[nH]1 [6-Bromo-3-(4-(4,5-diphenyl-1H-imidazol-2-yl)-1-phenyl-1Hpyrazol-3-yl)-2H-chromen 2-one (2k)] | 2.95
